Like-named read-outs stand apart in the source and are kept apart here.
Legend:
[1] = system: haploid and diploid yeast populations (ySK116, ySK743, ySK116x743); format: cell-based, S. cerevisiae; conditions: 30° C., OD 0.25-0.3, over the 20 h following drug addition
Experimental: Single colonies of fluorescently labelled haploid MATα (ySK116), fluorescently labelled haploid MATα (ySK743), and fluorescently labelled diploid control (ySK116x743) cells were grown overnight in YPD. These overnights were used to seed three eVOLVER vials at OD 0.05 (containing YPAD+50 ug/mL carbenicillin+25 ug/mL chloramphenicol). Cells were maintained at 30° C. in a density window of OD 0.25-0.3 for several generations in order to measure a baseline growth rate. At 16 h post-inoculation, cells from each haploid population were transferred by the vial-to-vial transfer device into the same fresh vial containing YPAD in order to create a new pre-drug to diploid population.
Next, cyclohexamide (CHX) was added to the haploid MATα vial, ketoconazole (KETO) was added to the MATα vial, and both drugs were added to the diploid control. Using the media selection portion of the vial-to-vial transfer device, 1 mL aliquots of media at 20× drug concentration were used to achieve a step-function transition to the final 1× drug concentration in each vial (0.2 ug/mL CHX for MATα, 6 ug/mL KETO for MATα, 0.2 ug/mL CHX+6 ug/mL KETO for the diploid control).

[2] = system: diploid pool samples yBW003, yBW008, yBW009; assay: Growth rate assay to evaluate antifungal resistance of diploid pools in eVOLVER; format: cell-based, S. cerevisiae; conditions: 6 ug/mL KETO only, seeded at OD 0.1, 30° C., 24 h without dilution
Experimental: As an alternative metric to evaluate performance of the diploids formed during the experiment, a growth rate assay was performed in media containing each drug in isolation or combination. Three diploid pool samples were assayed: yBW003 from to, yBWOO8 from t1, and yBW009 from t2. 100 uL of each frozen stock created from post-selection cultures was thawed, added to 2 mL YPAD and then grown in culture tubes in a shaking incubator for 16 h at 30° C. These cultures were used to seed duplicate eVOLVER vials containing media with one of four drug conditions (no drug, 0.2 ug/mL CHX only, 6 ug/mL KETO only, both 0.2 ug/mL CHX+6 ug/mL KETO) at an initial density of OD 0.1. Each vial received an estimated 3.2×10^7 cells from the non-clonal population that comprised each sample pool. Cultures were maintained in eVOLVER at 30° C. for 24 h without dilution, while tracking density continuously. Growth rate was calculated for each culture over the density range OD 0.2-0.8 (FIG. 43).

Structure (SMILES) | Growth rate relative to its original (pre-drug) value ([1]; 0.2 ug/mL CHX, haploid vial (founder ySK116)) | Effect on growth rate of diploid pools [2] | Growth rate relative to its original (pre-drug) value ([1]; 6 ug/mL KETO, haploid MATα vial (founder ySK743))
C[C@@H]1C[C@@H]([C@H](O)CC2CC(=O)NC(=O)C2)C(=O)[C@@H](C)C1 [CHX, cyclohexamide] | roughly 10% | – | –
CC(=O)N1CCN(c2ccc(OCC3COC(Cn4ccnc4)(c4ccc(Cl)cc4Cl)O3)cc2)CC1 (stereo not drawn) [KETO, ketoconazole] | – | not observed to significantly affect the growth rate | roughly 10%
